pIC50, pKi: −log10 of the molar value.
Assays:
[1] = biological target: T1, human orexin-2 receptor (OX2R) (Homo sapiens, UniProt O43614); test: In vitro orexin antagonism assay: intracellular calcium measurement (FLIPR), orexin-A 3 nM as agonist; format: cell-based; conditions: for inhibition at 1 µM: read-out: OX2R, % Inh. @ 1 uM; for pIC50: first value of IC50/Kb cell; for Kb: second value of IC50/Kb cell
T1 construct: expressed in transfected cells; host or cells: CHO cells (G418 selection)
T1 sequence (O43614 1-444): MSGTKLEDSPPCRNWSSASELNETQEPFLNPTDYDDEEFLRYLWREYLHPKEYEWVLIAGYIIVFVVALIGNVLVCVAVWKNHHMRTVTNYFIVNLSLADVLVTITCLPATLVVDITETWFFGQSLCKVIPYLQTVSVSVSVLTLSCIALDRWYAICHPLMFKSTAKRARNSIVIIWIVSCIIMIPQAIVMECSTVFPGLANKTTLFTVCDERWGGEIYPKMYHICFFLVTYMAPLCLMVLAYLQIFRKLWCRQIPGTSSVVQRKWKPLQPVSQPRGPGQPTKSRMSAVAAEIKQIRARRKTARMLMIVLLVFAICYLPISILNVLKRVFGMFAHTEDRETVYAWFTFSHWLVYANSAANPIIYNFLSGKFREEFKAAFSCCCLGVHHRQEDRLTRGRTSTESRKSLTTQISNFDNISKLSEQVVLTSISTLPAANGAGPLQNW
Method in brief: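 CHO cells stably expressing human OX1R or OX2R, loaded with fluo-4 AM (3 μM, 5 mM probenecid) for 50 min at 37 °C, then 30 min at RT. Antagonist preincubated 120 min before 3 nM orexin-A; FLIPR fluorescence peak height vs vehicle gives IC50, possibly normalized to on-plate reference; geometric mean of repeats.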

[2] = biological target: T2, Orexin type 1 (OX1R) receptor (Homo sapiens, UniProt O43613); test: as above; format: cell-based; conditions: for pIC50: first value of IC50/Kb cell; for inhibition at 1 µM: read-out: OX1R, % Inh. @ 1 uM; for Kb: second value of IC50/Kb cell
T2 construct: expressed in transfected cells; host or cells: CHO cells (G418 selection)
T2 sequence (O43613 1-425): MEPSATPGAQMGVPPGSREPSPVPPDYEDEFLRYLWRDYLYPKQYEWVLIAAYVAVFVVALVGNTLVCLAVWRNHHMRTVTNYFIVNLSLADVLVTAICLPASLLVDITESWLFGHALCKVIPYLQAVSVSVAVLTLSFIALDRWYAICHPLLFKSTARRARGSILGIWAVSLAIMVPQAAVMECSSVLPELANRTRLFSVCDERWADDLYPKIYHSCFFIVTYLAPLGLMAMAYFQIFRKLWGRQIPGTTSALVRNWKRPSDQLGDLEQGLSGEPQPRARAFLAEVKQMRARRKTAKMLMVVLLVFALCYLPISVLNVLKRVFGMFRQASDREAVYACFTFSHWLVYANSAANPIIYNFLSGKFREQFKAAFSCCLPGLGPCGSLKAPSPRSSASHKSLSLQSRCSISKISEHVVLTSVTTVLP
Method in brief: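 CHO cells expressing the human orexin receptor were loaded with 3 μM fluo-4 AM plus 5 mM probenecid, then exposed to antagonist for 120 min before 3 nM orexin-A (final) was added on a FLIPR.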

[3] = biological target: T3, human k-opioid receptor (kOR) (Homo sapiens, UniProt P41145); test: Human k-opioid (KOP) receptor (agonist radioligand [3H]U-69593) binding assay, transfected RBL cell membranes; conditions: for inhibition at 1 µM: read-out: KOR % Inh. @ 1 uM; for pIC50: first value of IC50/Ki cell; for pKi: second value of IC50/Ki cell
T3 construct: expressed in transfected cells; host or cells: RBL cells (membrane homogenates)
Method: Human k-Opioid (KOP) Receptor (Agonist Radioligand) Binding Assay
Purpose: Evaluation of the affinity of compounds for the human k-opioid receptor in transfected RBL cells determined in a radioligand binding assay.
Experimental protocol: Cell membrane homogenates (about 80 μg protein) are incubated for 60 min at 22° C. with 0.5 nM [3H]U-69593 in the absence or presence of the test compound in a buffer containing 50 mM Tris-HCl (pH 7.4), 10 mM MgCl2 and 1 mM EDTA. Nonspecific binding is determined in the presence of 10 μM naloxone. Following incubation, the samples are filtered rapidly under vacuum through glass fiber filters ([…], Packard) presoaked with 0.3% PEI and rinsed several times with ice-cold 50 mM Tris-HCl using a 96-sample cell harvester (Unifilter, Packard). The filters are dried then counted for radioactivity in a scintillation counter (Topcount, Packard) using a scintillation cocktail (Microscint 0, Packard). The results are expressed as a percent inhibition of the control radioligand specific binding. The standard reference compound is U-50488, which is tested in each experiment at several concentrations to obtain a competition curve from which its IC50 is calculated.

T3 sequence (P41145 whole entry): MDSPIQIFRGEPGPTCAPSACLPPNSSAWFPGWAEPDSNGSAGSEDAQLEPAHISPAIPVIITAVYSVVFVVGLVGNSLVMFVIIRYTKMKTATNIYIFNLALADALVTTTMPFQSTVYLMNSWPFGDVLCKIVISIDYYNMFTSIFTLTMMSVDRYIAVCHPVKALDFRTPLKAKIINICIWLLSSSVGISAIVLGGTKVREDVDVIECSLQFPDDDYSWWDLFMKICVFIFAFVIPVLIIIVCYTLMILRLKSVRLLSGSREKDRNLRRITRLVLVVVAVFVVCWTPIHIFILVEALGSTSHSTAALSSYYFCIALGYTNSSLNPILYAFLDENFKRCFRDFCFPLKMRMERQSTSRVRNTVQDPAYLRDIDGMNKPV

| Compound | inhibition at 1 µM [1] | pIC50 [2] | inhibition at 1 µM [2] | Kb [2] | inhibition at 1 µM [3] | OX2R, % Inh. @ 1 uM [1] | pIC50 [1] | Kb [1] | OX1R, % Inh. @ 1 uM [2] | KOR % Inh. @ 1 uM [3] | pIC50 [3] | pKi [3] |
| --- | --- | --- | --- | --- | --- | --- | --- | --- | --- | --- | --- | --- |
| O=C(c1c(-c2ccccc2)nn2c1COCC2)N1CCCC[C@H]1COc1ccc(C(F)(F)F)cn1 [Example 46] | 25.3% | 8.15 | 94.8% | 1 nM | 38% |  |  |  |  |  |  |  |
| O=C(c1c(-c2ccc(F)cc2)nn2ccccc12)N1CCC[C@H]1Cn1ccc(-c2ccc(F)cc2)n1 [Example 55] |  | 8.30 |  | 1 nM |  | 93% | 7.48 | 5 nM | 100% | 66% | 6.32 | 6.59 |
| O=C(c1c(-c2ccc(F)cc2)nn2ccccc12)N1CCC[C@H]1Cn1ccc(-c2ccc(C(F)(F)F)cc2)n1 [Example 56] |  | 6.24 |  | 121 nM |  | 12% |  |  | 59% | 76% | 6.35 | 6.60 |
| O=C(c1c(-c2ccccc2)nn2c1COCC2)N1CCC[C@H]1Cn1ccc(-c2ccc(F)cc2)n1 [Example 57] |  | 7.19 |  | 14 nM |  | 52% | 6.11 | 107 nM | 73% | 76% | 6.36 | 6.62 |
| O=C(c1c(-c2ccccc2)nn2ccccc12)N1CCC[C@H]1Cn1ccc(-c2ccc(F)cc2)n1 [Example 59] |  | 8.40 |  | 0.7 nM |  | 99% | 7.96 | 2 nM | 91% | 56% | 6.33 | 6.59 |
| O=C(c1c(-c2ccccc2)nn2ccccc12)N1CCC[C@H]1Cn1ccc(-c2ccc(C(F)(F)F)cc2)n1 [Example 60] |  | 6.97 |  | 22 nM |  | 37% |  |  | 78% | 63% | 6.41 | 6.68 |
| O=C(c1c(-c2ccc(F)cc2)nc2ccccn12)N1CCC[C@H]1Cn1ccc(-c2ccc(F)cc2)n1 [Example 61] |  | 7.54 |  | 6 nM |  | 73% | 7.12 | 10 nM | 85% | 74% | 6.55 | 6.82 |
| O=C(c1c(-c2ccccc2F)nc2ccccn12)N1CCC[C@H]1Cn1ccc(-c2ccc(F)cc2)n1 [Example 62] |  | 8.22 |  | 1 nM |  | 85.23% | 7.59 | 4 nM | 96.96% | 79% | 6.70 | 6.96 |
| O=C(c1c(-c2ccccc2F)nn2ccccc12)N1CCC[C@H]1Cn1ccc(-c2ccc(F)cc2)n1 [Example 63] |  | 8.40 |  | 0.8 nM |  | 100% | 8.22 | 0.9 nM | 98% | 75% | 3.55 |  |
| O=C(c1c(-c2ccccc2F)nn2ccccc12)N1CCC[C@H]1COc1ccc(C(F)(F)F)cn1 [Example 64] | 67% | 7.96 | 81% | 2 nM | 37% |  | 6.56 | 38 nM |  |  |  |  |
| O=C(c1c(-c2ccccc2F)nc2ccccn12)N1CCC[C@H]1COc1ccc(C(F)(F)F)cn1 [Example 65] | 41% | 7.28 | 64% | 11 nM | 11% |  |  |  |  |  |  |  |
| O=C(c1c(-c2ccccn2)nn2ccccc12)N1CCC[C@H]1Cn1cc(-c2ccc(F)cn2)cn1 [Example 206] | 83% |  | 67% |  |  |  | 7.21 | 11 nM |  |  |  |  |
| O=C(c1nc2ccccn2c1-c1ccccn1)N1CCC[C@H]1Cn1ccc(-c2ccc(F)cn2)n1 [Example 207] | 0% | 7.52 | 99% | 6 nM |  |  |  |  |  |  |  |  |
| O=C(c1nc2ccccn2c1-c1ccccn1)N1CCC[C@H]1Cc1nc(-c2ccccn2)no1 [Example 209] | 4% | 6.52 | 75% | 63 nM |  |  |  |  |  |  |  |  |
| O=C(c1nc2ccccn2c1-c1ccccn1)N1CCC[C@H]1Cc1nc(-c2ccc(F)cn2)no1 [Example 210] | 12% | 6.72 | 85% | 40 nM |  |  |  |  |  |  |  |  |
| O=C(c1nn2c(c1-c1ccccn1)COCC2)N1CCC[C@H]1Cn1ccc(-c2ccccn2)n1 [Example 211] | 28% | 7.72 | 100% | 4 nM |  |  |  |  |  |  |  |  |
| O=C(c1nn2c(c1-c1ccccn1)COCC2)N1CCC[C@H]1Cn1ccc(-c2ccc(F)cn2)n1 [Example 212] |  | 7.46 |  | 7 nM |  | 46% |  |  | 96% |  |  |  |
| O=C(c1nn2c(c1-c1ccccn1)COCC2)N1CCC[C@H]1Cn1cc(-c2ccccn2)cn1 [Example 213] | 33% | 6.66 | 77% | 47 nM |  |  |  |  |  |  |  |  |
| O=C(c1nn2c(c1-c1ccccn1)COCC2)N1CCC[C@H]1Cn1cc(-c2ccc(F)cn2)cn1 [Example 214] | 32% |  | 66% |  |  |  |  |  |  |  |  |  |
| O=C(c1nc2n(c1-c1ccccn1)CCOC2)N1CCC[C@H]1Cn1ccc(-c2ccccn2)n1 [Example 215] | 12% |  | 64% |  |  |  |  |  |  |  |  |  |
| O=C(c1nc2n(c1-c1ccccn1)CCOC2)N1CCC[C@H]1Cn1ccc(-c2ccc(F)cn2)n1 [Example 216] | 24% | 6.80 | 70% | 34 nM |  |  |  |  |  |  |  |  |
| O=C(c1nc2n(c1-c1ccccn1)CCOC2)N1CCC[C@H]1Cn1cc(-c2ccccn2)cn1 [Example 217] | 57% | 6.68 | 76% | 45 nM |  |  |  |  |  |  |  |  |
| O=C(c1nc2n(c1-c1ccccn1)CCOC2)N1CCC[C@H]1Cn1cc(-c2ccc(F)cn2)cn1 [Example 218] | 74% | 6.92 | 79% | 25 nM |  |  |  |  |  |  |  |  |
| O=C(c1nc2n(c1-c1ccccn1)CCOC2)N1CCC[C@H]1Cc1nc(-c2ccccn2)no1 [Example 219] | 0% |  | 25% |  |  |  |  |  |  |  |  |  |
| O=C(c1nc2n(c1-c1ccccn1)CCOC2)N1CCC[C@H]1Cc1nc(-c2ccc(F)cn2)no1 [Example 220] | 0% |  | 21% |  |  |  |  |  |  |  |  |  |
| O=C(c1nn2c(c1-c1ccccn1)CCOC2)N1CCC[C@H]1Cc1nc(-c2ccccn2)no1 [Example 221] | 0% |  | 56% |  |  |  |  |  |  |  |  |  |
| O=C(c1nn2c(c1-c1ccccn1)CCOC2)N1CCC[C@H]1Cc1nc(-c2ccc(F)cn2)no1 [Example 222] | 12% |  | 55% |  |  |  |  |  |  |  |  |  |
| O=C(c1nn2c(c1-c1ccccn1)COCC2)N1CCC[C@H]1COc1ccc(C(F)(F)F)cn1 [Example 223] |  | 8.30 |  | 1 nM |  | 21% |  |  | 97% |  |  |  |

— US20260070922A1, “PYRAZOLE AND IMIDAZOLE DERIVATIVES AS DUAL OREXIN AND KAPPA-OPIOID RECEPTORS MODULATORS COMPOSITION, METHODS FOR TREATING NEUROLOGICAL AND PSYCHIATRIC DISORDERS” (HAGER BIOSCIENCES, LLC, priority 2022, published 2026)
